Legend:
[1] = hazard statements in words; cited from earlier work
[2] = system: whole adult planarians; settings: 0.22-22 mg/L, 12 days, control points at 7 and 12 days; for Concentration above which behavioral problems potentially linked to cognitive problems in the planarian are observed: adhesion, speed of movement, rest, phototaxis, scrunching

Structure (SMILES) | Toxicity (confirmed toxicity, ECHA substance information) [1] | Concentration above which significant mortality of planarian is observed according to Zhang et al., Neurotoxicology and Teratology, 2019 [2] | Concentration above which behavioral problems potentially linked to cognitive problems in the planarian are observed [2]
CC(C)(C)c1cc(Cc2cc(C(C)(C)C)c(O)c(C(C)(C)C)c2)cc(C(C)(C)C)c1O [Example 3, 4,4′-Methylene-bis-(2,6-di-tert-butylphenol)] | Under evaluation as an endocrine | – | –
CC(C)CC(C)Nc1ccc(Nc2ccccc2)cc1 (centres unmarked) [Example 22, N-(1,3-Dimethylbutyl)-N′-phenyl-p-phenylenediamine] | Harms fertility or has a negative impact | 4.8 mg/L | 1.5 mg/L
c1ccc(Nc2ccc(Nc3ccccc3)cc2)cc1 [DPPD, N,N′-diphenyl-p-phenylenediamine] | Is harmful to aquatic life with long-term | – | –
c1ccc(Nc2ccc(NC3CCCCC3)cc2)cc1 [CPPD, N-cyclohexyl-N′-phenyl-p-phenylenediamine] | Is toxic to aquatic life with long-term | – | –
c1ccc(Nc2cccc3ccccc23)cc1 [Example 19, N-phenylnaphthalene-1-amine] | – | 6.9 mg/L | 2.2 to 3.9 mg/L

Reference: US20260078239A1, “USE OF AN ANTIOXIDANT FOR REDUCING AND/OR PREVENTING THE TOXICITY OF A RUBBER COMPOSITION” (NYCO, priority 2022, published 2026)
